Test results reported in PMC2649998 (Journal of pharmaceutical sciences, 2009).

What was measured:
dogs = details: in dogs; cited from earlier work
[1] = assay type: physicochemical
[2] = assay type: physicochemical; details: 0.3 mM PEO-b-PDLLA, 10% w/w drug, dialysis in ddH2O, 37 °C, pH 7.4
[3] = system: MCF-7 human breast cancer cells; assay: in vitro cytotoxicity, resazurin dye, 72 h; assay type: cell-based; details: MCF7, 72 h, read-out: MCF-7 IC50
[4] = system: PC-3 human prostate cells; assay: in vitro cytotoxicity, resazurin dye, 72 h; assay type: cell-based; details: Prostate cell, read-out: PC-3 IC50
[5] = cited from earlier work
MCF-7 = details: read-out: IC50 for MCF-7; reported by the National Cancer Institute; cited from earlier work
PC-3 = details: read-out: IC50 for PC-3; reported by the National Cancer Institute; cited from earlier work

Structure (SMILES) | maximum tolerated dose (dogs) | 17-AAG : PEO-b-PDLLA ([1]; 0.3 mM PEO-b-PDLLA micelle solution) | Loading efficiency ([1]; 17-AAG loaded 1.4% divided by loading attempted 10% w/w) [%] | increase in solubility over 17-AAG alone ([1]; in PEO-b-PDLLA (12:6 kDa) micelles versus ca. 10 μg/mL) | 17-AAG loaded ([1]; weight 17-AAG solubilized versus total weight of carrier (17-AAG and PEO-b-PDLLA), 0.3 mM PEO-b-PDLLA) [mg/mg] | release half-life [2] | IC50 [3] [nM] | IC50 [4] [nM] | aqueous solubility [5] | IC50 (MCF-7) [nM] | IC50 (PC-3) [nM]
CO[C@H]1/C=C\C=C(/C)C(=O)NC2=CC(=O)C(NCCN(C)C)=C(C[C@@H](C)C[C@H](OC)[C@H](O)[C@@H](C)/C=C(\C)[C@@H]1OC(N)=O)C2=O [17-DMAG, 17-dimethylaminoethylamino-17-demethoxygeldanamycin] | 8 mg/m^2/day | – | – | – | – | – | – | – | – | – | –
C=CCNC1=C2C[C@@H](C)C[C@H](OC)[C@H](O)[C@@H](C)/C=C(\C)[C@H](OC(N)=O)[C@@H](OC)/C=C\C=C(/C)C(=O)NC(=CC1=O)C2=O [17-AAG, 17-allylamino-17-demethoxygeldanamycin] | 100–200 mg/m^2/day | 0.47 ± 0.068 mol:mol | 14 ± 2.0 | ca. 150 fold | 0.014 ± 0.0020 | similar | 22 ± 14 | 74 ± 14 | ca. 0.01 mg/mL | 12.6 | 50.1
